Data published in ChEMBL document CHEMBL4622941, “Discovery of ASP5286: A novel non-immunosuppressive cyclophilin inhibitor for the treatment of HCV” (Bioorg Med Chem Lett, 2020).
≈ marks a conversion by molar mass, not a printed value. Calls of active or inactive are those of the source. No cut-off for these calls is given here. Where a SMILES comes first, the peptide text is derived from it. [ ]: non-standard residue; d: D form. MeBmt = C/C=C/C[C@@H](C)[C@@H](O)[C@H](NC)C(=O)O; NMePhg = CN[C@H](C(=O)O)c1ccccc1; NMeT = CN[C@H](C(=O)O)[C@@H](C)O; NMeL = CN[C@@H](CC(C)C)C(=O)O; NMeV = CN[C@H](C(=O)O)C(C)C; dNMeA = CN[C@H](C)C(=O)O; Sar = CNCC(=O)O

Legend:
Splenocyte = assay: Immunosuppressive activity in mouse splenocytes assessed as inhibition of ConA- induced proliferation; type: functional, cell-based
[1] = Inhibition of cyclophilin in Hepatitis C virus assessed as inhibition of viral replicon replication by qRT-PCR analysis; parameters: species or system Hepacivirus hominis
[2] = Inhibition of cyclophilin in Hepatitis C virus assessed as inhibition of viral replicon replication in presence of 5% FBS by qRT-PCR analysis; parameters: species or system Hepacivirus hominis
[3] = Oral bioavailability in rat; type: ADME, organism-based; conditions: in vivo
[4] = AUC (0 to 24 hrs) in po dosed rat; type: ADME, organism-based; parameters: time < 24 hr, route oral; conditions: in vivo
[5] = Inhibition of cyclophilin in Hepatitis C virus assessed as inhibition of viral replicon replication in presence of 10% HSA by qRT-PCR analysis; parameters: species or system Hepacivirus hominis
[6] = Aqueous solubility of the compound at pH 6.8; type: physicochemical
Hepatitis C virus [7] = assay: (§1) Antiviral activity against Hepatitis C virus genotype 1b infected in humanized liver SCID-Alb/uPA chimeric mouse assessed as reduction in serum HCV RNA level at 3.75 to 30 mg/kg, po bid administered via gavage for 14 days measured after 7 days without compound administration post-last dose; type: functional, organism-based; conditions: Hepacivirus hominis, subtype 1b
Hepatitis C virus [8] = assay: as §1, with “14 days cotreated with peginterferon-alpha2a at 10 ug/kg, sc administered twice a week and measured after” for “14 days measured after”; type: functional, organism-based; conditions: Hepacivirus hominis, subtype 1b

## C/C=C/C[C@@H](C)[C@@H](O)[C@H]1C(=O)N[C@@H]([C@@H](C)O)C(=O)N(C)[C@H](C)C(=O)N(C)[C@@H](c2ccccc2)C(=O)N[C@@H](CC(C)C)C(=O)N(C)[C@@H](CC(C)C)C(=O)N[C@@H](C)C(=O)N[C@H](C)C(=O)N(C)[C@@H](CC(C)C)C(=O)N[C@@H](CC(C)C)C(=O)N(C)[C@@H](C(C)C)C(=O)N1C (cyclo(A[dA][NMeL]L[NMeV][MeBmt]T[dNMeA][NMePhg]L[NMeL]))
Splenocyte
  IC50: 1.35 µg/mL (≈ 1.08 µM)
[1]
  EC50: 0.084 µg/mL (≈ 0.0671 µM)

## C/C=C/C[C@@H](C)[C@@H](O)[C@H]1C(=O)N[C@@H]([C@@H](C)O)C(=O)N(C)CC(=O)N(C)[C@@H](CC(C)C)C(=O)N[C@@H](CC(C)C)C(=O)N(C)[C@@H](CC(C)C)C(=O)N[C@@H](C)C(=O)N[C@H](C)C(=O)N(C)[C@@H](CC(C)C)C(=O)N[C@@H](CC(C)C)C(=O)N(C)[C@@H](C(C)C)C(=O)N1C (cyclo(A[dA][NMeL]L[NMeV][MeBmt]T[Sar][NMeL]L[NMeL]))
Splenocyte
  IC50: 0.026 µg/mL (≈ 0.0213 µM)
[2]
  EC50: 0.096 µg/mL
[3]
  bioavailability: 4.3%
[4]
  AUC(0-t) at 24 h: 140 ng·h/mL
[1]
  EC50: 0.096 µg/mL (≈ 0.0788 µM)
[5]
  EC50: 0.37 µg/mL
[6]
  solubility: 6.5 µg/mL (≈ 5.33 µM)

## C/C=C/C[C@@H](C)[C@@H](O)[C@H]1C(=O)N[C@@H]([C@@H](C)O)C(=O)N(C)[C@H](C)C(=O)N(C)[C@@H]([C@@H](C)CC)C(=O)N[C@@H](CC(C)C)C(=O)N(C)[C@@H](CC(C)C)C(=O)N[C@@H](C)C(=O)N[C@H](C)C(=O)N(C)[C@@H](CC(C)C)C(=O)N[C@@H](CC(C)C)C(=O)N(C)[C@@H](C(C)C)C(=O)N1C
Splenocyte
  IC50: 1.1 µg/mL (≈ 0.892 µM)
[2]
  EC50: 0.039 µg/mL
[3]
  bioavailability: 49%
[4]
  AUC(0-t) at 24 h: 13300 ng·h/mL
[1]
  EC50: 0.039 µg/mL (≈ 0.0316 µM)
[5]
  EC50: 0.05 µg/mL
[6]
  solubility: < 0.1 µg/mL

## C/C=C/C[C@@H](C)[C@@H](O)[C@H]1C(=O)N[C@@H]([C@@H](C)O)C(=O)N(C)CC(=O)N(C)[C@@H](CC2CCCCC2)C(=O)N[C@@H](CC(C)C)C(=O)N(C)[C@@H](CC(C)C)C(=O)N[C@@H](C)C(=O)N[C@H](C)C(=O)N(C)[C@@H](CC(C)C)C(=O)N[C@@H](CC(C)C)C(=O)N(C)[C@@H](C(C)C)C(=O)N1C
Splenocyte
  IC50: 0.065 µg/mL (≈ 0.0516 µM)
[1]
  EC50: 0.086 µg/mL (≈ 0.0683 µM)

## C/C=C/C[C@@H](C)[C@@H](O)[C@H]1C(=O)N[C@@H]([C@@H](C)O)C(=O)N(C)[C@H](C)C(=O)N(C)[C@@H]([C@@H](C)OO)C(=O)N[C@@H](CC(C)C)C(=O)N(C)[C@@H](CC(C)C)C(=O)N[C@@H](C)C(=O)N[C@H](C)C(=O)N(C)[C@@H](CC(C)C)C(=O)N[C@@H](CC(C)C)C(=O)N(C)[C@@H](C(C)C)C(=O)N1C
Splenocyte
  IC50: 1.9 µg/mL (≈ 1.54 µM)
[2]
  EC50: 0.061 µg/mL
[3]
  bioavailability: 32%
[4]
  AUC(0-t) at 24 h: 5680 ng·h/mL
[5]
  EC50: 0.086 µg/mL
[6]
  solubility: > 122 µg/mL

## C/C=C/C[C@@H](C)[C@@H](O)[C@H]1C(=O)N[C@@H]([C@@H](C)O)C(=O)N(C)[C@H](C)C(=O)N(C)[C@@H](CC(C)C)C(=O)N[C@@H](CC(C)C)C(=O)N(C)[C@@H](CC(C)C)C(=O)N[C@@H](C)C(=O)N[C@H](C)C(=O)N(C)[C@@H](CC(C)C)C(=O)N[C@@H](CC(C)C)C(=O)N(C)[C@@H](C(C)C)C(=O)N1C
Splenocyte
  IC50: 0.07 µg/mL (≈ 0.0568 µM)
[2]
  EC50: 0.038 µg/mL
[3]
  bioavailability: 40%
[4]
  AUC(0-t) at 24 h: 4210 ng·h/mL
[1]
  EC50: 0.038 µg/mL (≈ 0.0308 µM)
[5]
  EC50: 0.35 µg/mL

## C/C=C/C[C@@H](C)[C@@H](O)[C@H]1C(=O)N[C@@H]([C@@H](C)O)C(=O)N(C)[C@H](C)C(=O)N(C)[C@@H](C2CCCCC2)C(=O)N[C@@H](CC(C)C)C(=O)N(C)[C@@H](CC(C)C)C(=O)N[C@@H](C)C(=O)N[C@H](C)C(=O)N(C)[C@@H](CC(C)C)C(=O)N[C@@H](CC(C)C)C(=O)N(C)[C@@H](C(C)C)C(=O)N1C
Splenocyte
  IC50: 0.35 µg/mL (≈ 0.278 µM)
[1]
  EC50: 0.042 µg/mL (≈ 0.0334 µM)

## C/C=C/C[C@@H](C)[C@@H](O)[C@H]1C(=O)N[C@@H]([C@@H](C)O)C(=O)N(C)CC(=O)N(C)[C@@H](c2ccccc2)C(=O)N[C@@H](CC(C)C)C(=O)N(C)[C@@H](CC(C)C)C(=O)N[C@@H](C)C(=O)N[C@H](C)C(=O)N(C)[C@@H](CC(C)C)C(=O)N[C@@H](CC(C)C)C(=O)N(C)[C@@H](C(C)C)C(=O)N1C
Splenocyte
  IC50: 0.8 µg/mL (≈ 0.646 µM)
[1]
  EC50: 0.12 µg/mL (≈ 0.0969 µM)

## C/C=C/C[C@@H](C)[C@@H](O)[C@H]1C(=O)N[C@@H]([C@@H](C)O)C(=O)N(C)[C@H](C)C(=O)N(C)[C@@H]([C@@H](C)OC(C)(C)C)C(=O)N[C@@H](CC(C)C)C(=O)N(C)[C@@H](CC(C)C)C(=O)N[C@@H](C)C(=O)N[C@H](C)C(=O)N(C)[C@@H](CC(C)C)C(=O)N[C@@H](CC(C)C)C(=O)N(C)[C@@H](C(C)C)C(=O)N1C
Splenocyte
  IC50: 1.6 µg/mL (≈ 1.25 µM)
[2]
  EC50: 0.03 µg/mL
[3]
  bioavailability: 74%
[4]
  AUC(0-t) at 24 h: 9450 ng·h/mL
[5]
  EC50: 0.11 µg/mL
[6]
  solubility: < 0.1 µg/mL

## C/C=C/C[C@@H](C)[C@@H](O)[C@H]1C(=O)N[C@@H]([C@@H](C)O)C(=O)N(C)CC(=O)N(C)[C@@H]([C@@H](C)CC)C(=O)N[C@@H](CC(C)C)C(=O)N(C)[C@@H](CC(C)C)C(=O)N[C@@H](C)C(=O)N[C@H](C)C(=O)N(C)[C@@H](CC(C)C)C(=O)N[C@@H](CC(C)C)C(=O)N(C)[C@@H](C(C)C)C(=O)N1C
Splenocyte
  IC50: 0.77 µg/mL (≈ 0.632 µM)
[2]
  EC50: 0.15 µg/mL
[3]
  bioavailability: 2.1%
[4]
  AUC(0-t) at 24 h: 111 ng·h/mL
[1]
  EC50: 0.15 µg/mL (≈ 0.123 µM)
[5]
  EC50: 2 µg/mL
[6]
  solubility: 0.2 µg/mL (≈ 0.164 µM)

## C/C=C/C[C@@H](C)[C@@H](O)[C@H]1C(=O)N[C@@H]([C@@H](C)O)C(=O)N(C)CC(=O)N(C)[C@@H](C2CCCCC2)C(=O)N[C@@H](CC(C)C)C(=O)N(C)[C@@H](CC(C)C)C(=O)N[C@@H](C)C(=O)N[C@H](C)C(=O)N(C)[C@@H](CC(C)C)C(=O)N[C@@H](CC(C)C)C(=O)N(C)[C@@H](C(C)C)C(=O)N1C
Splenocyte
  IC50: 0.41 µg/mL (≈ 0.329 µM)
[1]
  EC50: 0.063 µg/mL (≈ 0.0506 µM)

## C/C=C/C[C@@H](C)[C@@H](O)[C@H]1C(=O)N[C@@H]([C@@H](C)O)C(=O)N(C)[C@H](C)C(=O)N(C)[C@@H]([C@@H](C)OC)C(=O)N[C@@H](CC(C)C)C(=O)N(C)[C@@H](CC(C)C)C(=O)N[C@@H](C)C(=O)N[C@H](C)C(=O)N(C)[C@@H](CC(C)C)C(=O)N[C@@H](CC(C)C)C(=O)N(C)[C@@H](C(C)C)C(=O)N1C (cyclo(A[dA][NMeL]L[NMeV][MeBmt]T[dNMeA][NMeT](Me)L[NMeL]))
Splenocyte
  IC50: 0.97 µg/mL (≈ 0.786 µM)
[2]
  EC50: 0.04 µg/mL
Hepatitis C virus [7]
  Activity: Active
[3]
  bioavailability: 36%
[4]
  AUC(0-t) at 24 h: 16100 ng·h/mL
Hepatitis C virus [8]
  Activity: Active
[5]
  EC50: 0.061 µg/mL
[6]
  solubility: 117 µg/mL (≈ 94.8 µM)
